From ChEMBL document CHEMBL4028822, “Identification and structure activity relationship of novel flavone derivatives that inhibit the production of nitric oxide and PGE2 in LPS-induced RAW 264.7 cells” (Bioorg Med Chem Lett, 2017) come the findings set out here.

Each structure is given as a SMILES string. pIC50: −log10 of the molar value.

Series [1] deals with RAW264.7. Kind of series: Cytotoxicity against mouse RAW264.7 cells by MTT assay. The series is classed as cell-based. In general terms: Tetrazolium dyes change colour on reduction, which living cells bring about.
The test system of series [2] is RAW264.7. Kind of series: Antiinflammatory activity in mouse RAW264.7 cells assessed as inhibition of LPS-stimulated NO production by ELISA. It is filed as functional, cell-based.
In series [3] the test system is RAW264.7. Kind of series: Antiinflammatory activity in mouse RAW264.7 cells assessed as inhibition of LPS-stimulated PGE2 production by ELISA. The series is classed as functional, cell-based. (In general: ELISA stands for enzyme-linked immunosorbent assay.)
The nature of series [4]: Cytotoxicity against LPS-stimulated mouse RAW264.7 cells assessed as cell viability at 20 uM by MTT assay (reference value: 100.01 +/- 0.05 %). The following applies: LPS-stimulated RAW264.7 cells, read-out: Activity. It is filed as cell-based.
Series [5] concerns RAW264.7. The experiment in a line: Antiinflammatory activity in mouse RAW264.7 cells assessed as inhibition of LPS-stimulated NO production at 20 uM by ELISA relative to control. It is filed as functional.
The subject of series [6] is RAW264.7. The experiment in a line: Antiinflammatory activity in mouse RAW264.7 cells assessed as inhibition of LPS-stimulated NO production at 10 uM by ELISA relative to control. The series is classed as functional.
Series [7] is described as follows: Cytotoxicity against LPS-stimulated mouse RAW264.7 cells assessed as cell viability at 10 uM by MTT assay (reference value: 100.01 +/- 0.05 %). It is filed as cell-based. The following applies: LPS-stimulated RAW264.7 cells, read-out: Activity.
A short description of series [8]: Cytotoxicity against LPS-stimulated mouse RAW264.7 cells assessed as cell viability at 5 uM by MTT assay (reference value: 100.01 +/- 0.05 %). The series is classed as cell-based. The following applies: LPS-stimulated RAW264.7 cells, read-out: Activity.
Series [9] relates to RAW264.7. Kind of series: Antiinflammatory activity in mouse RAW264.7 cells assessed as inhibition of LPS-stimulated NO production at 5 uM by ELISA relative to control. It is filed as functional.

Usually pIC50 stands for −log10 of the IC50, conventionally taken in molar units. The inhibition is the relative decrease from the control value, in per cent.

For the molecule `COc1cc(OC)c2c(=O)cc(-c3ccc(O)c(O)c3)oc2c1`, the pIC50 in series [1] was under 3.70; in [2] it was 4.46; in [3] it was 4.85.
For `O=c1cc(-c2cccc(O)c2)oc2ccccc12`, the viability at 20 µM in series [4] amounted to 97%. Also, the inhibition at 20 µM in series [5] was 17.7%.
For `O=c1cc(-c2ccc(Cl)cc2)oc2ccccc12`, in that order: 85.8% and 5.07%.
As to `O=c1cc(-c2ccc(C(F)(F)F)cc2)oc2ccccc12`, the viability at 20 µM in [4] is 87.9%. In [5], the inhibition at 20 µM came out at 10.7%.
Take `O=c1cc(-c2ccc(O)c(O)c2)oc2ccccc12`: the pIC50 in series [1] is 4.35; in [2] it was 5.20; in series [3], 6.00. The inhibition at 10 µM in series [6] was 64.3%. In addition, the viability at 10 µM in series [7] is 93.6%.
Regarding `O=c1cc(-c2ccccc2)oc2cc3c(cc12)OCO3`, the viability at 20 µM in [4] is 119%. For the same molecule, the inhibition at 20 µM in series [5] worked out at 20.9%.
For `O=c1cc(-c2ccc(-c3ccccc3)cc2)oc2ccccc12`, in that order: 92.3% and 4.45%.
`O=c1cc(-c2ccccc2)oc2ccc([N+](=O)[O-])cc12`: the viability at 20 µM in series [4] worked out at 90.8%. In addition, in series [5], the inhibition at 20 µM came out at 11.9%.
For `O=c1cc(-c2ccc(O)cc2)oc2ccccc12`, the negative-log IC50 (pIC50) is 3.84 in series [1], 4.32 in series [2] and 5.42 in series [3]. In addition, the viability at 20 µM in series [4] is 96.1%. Further, the inhibition at 20 µM in series [5] is 37.5%.
With `COc1cccc(-c2cc(=O)c3ccccc3o2)c1`, in series [4], the viability at 20 µM is 102%. In [5], the inhibition at 20 µM came to 15.7%.
On to `CC(C)(C)c1ccc(-c2cc(=O)c3ccccc3o2)cc1`, for which, in series [4], the viability at 20 µM is 99.1%. For the same molecule, in series [5], the inhibition at 20 µM is 19.5%.
For `O=c1cc(-c2ccc(-c3cccc4ccccc34)cc2)oc2ccccc12`, the viability at 20 µM in series [4] amounted to 99.8%. Also, in series [5], the inhibition at 20 µM came out at 11.6%.
On the same counts, the results for `CC(C)(C)C(=O)Oc1ccc2c(=O)cc(-c3ccccc3)oc2c1` are 102% and 28.6%.
On the same counts, the results for `COc1ccc(-c2cc(=O)c3ccccc3o2)c(OC)c1` are 107% and 20.9%.
Take `C[Si](C)(C)c1ccc(-c2cc(=O)c3ccccc3o2)cc1`: the viability at 20 µM in [4] was 95%. In addition, the inhibition at 20 µM in [5] is 18%.
Consider `O=c1cc(-c2ccc(F)cc2)oc2ccccc12`, for which the viability at 20 µM in series [4] amounted to 92.4%. Moreover, the inhibition at 20 µM in [5] stood at 21.2%.
On the same counts, the results for `O=c1cc(-c2ccccc2)oc2ccc(F)cc12` are 75.2% and 20.4%.
Regarding `COc1ccc(-c2cc(=O)c3ccccc3o2)cc1OC` [3',4'-DIMETHOXYFLAVONE], the pIC50 is 4.40 in [1], 4.46 in series [2] and 5.19 in series [3]. The viability at 20 µM in series [4] was 117%. The inhibition at 20 µM in [5] was 33.3%.
With `COc1ccc(-c2cc(=O)c3ccccc3o2)cc1` [4'-METHOXYFLAVONE], the viability at 20 µM in [4] worked out at 111%. Also, the inhibition at 20 µM in series [5] came to 8.76%.
For `O=c1cc(-c2ccccc2)oc2ccc(Cl)cc12` [6-CHLOROFLAVONE], in that order: 91.4% and 26.1%.
On the same counts, the results for `COc1ccc2oc(-c3ccccc3)cc(=O)c2c1` [6-METHOXYFLAVONE] are 116% and 22.2%.
With `Cc1ccc2oc(-c3ccccc3)cc(=O)c2c1` [6-METHYLFLAVONE], in [4], the viability at 20 µM was determined as 116%. In series [5], the inhibition at 20 µM turned out to be 17.4%.
For `COc1ccc2c(=O)cc(-c3ccccc3)oc2c1` [7-METHOXYFLAVONE], the viability at 20 µM in series [4] worked out at 133%. In addition, in series [5], the inhibition at 20 µM is 17.7%.
Turning to `COc1cc(OC)c2c(=O)cc(-c3ccccc3)oc2c1` [CHRYSIN DIMETHYL ETHER], the pIC50 in [1] was 4.18; in series [2], 4.48; in series [3] it was 5.13. Also, the viability at 20 µM in series [4] was determined as 134%. For the same molecule, in series [5], the inhibition at 20 µM stood at 31.5%.
Turning to `O=c1cc(-c2ccccc2)oc2ccccc12` [FLAVONE], in series [4], the viability at 20 µM is 95.4%. The inhibition at 20 µM in series [5] stood at 16.3%.
In the case of `CC(C)Cc1ccc(C(C)C(=O)O)cc1` (centres undefined) [IBUPROFEN], the negative-log IC50 (pIC50) in [1] was 2.48; in series [2], 2.83; in series [3], 6.41.
For the molecule `O=c1cc(-c2ccc(O)c(O)c2)oc2cc(O)cc(O)c12` [LUTEOLIN], the viability at 5 µM in series [8] is 98%. The figures for the negative logarithm of the IC50 (pIC50) in [1], in [2] and in series [3] were 4.72, 5.30 and 5.54, respectively. Also, in series [9], the inhibition at 5 µM amounted to 19.5%.
On to `CS(=O)(=O)Nc1ccc([N+](=O)[O-])cc1OC1CCCCC1` [NS-398], for which the pIC50 in series [3] is 5.17.
For the molecule `COc1cc(OC)c2c(=O)cc(-c3ccc(OC)c(OC)c3)oc2c1` [TETRAMETHYLLUTEOLIN], the pIC50 in series [1] was 4.13; in series [2], 4.49; in [3], 5.50. Besides, in series [4], the viability at 20 µM was determined as 109%. In addition, in [5], the inhibition at 20 µM was determined as 37.6%.
For `COc1ccc(-c2cc(=O)c3c(OC)cc(OC)cc3o2)cc1` [TRIMETHYLAPIGENIN], in series [4], the viability at 20 µM came out at 103%. Moreover, the inhibition at 20 µM in series [5] came out at 27.2%.
